Values after ≈ are worked out from the molar mass of the structure shown.
Columns and labels:
Staphylococcus aureus = test: In vivo activity against experimental bacterial infection in mice; conditions: two doses, dose protecting fifty percent of the test animals
[1] = tested on: Bacillus subtilis ATCC 6633; test: Agar-plate disc-diffusion test; format: cell-based; conditions: compound at 1 mg/ml, 7-mm disc, 24-48 hours at 25-37° C.
From the text: | ^b Grown on minimal nutrient agar

[2] = tested on: Staphylococcus aureus X400; format: cell-based; conditions: agar-dilution; methicillin-resistant strain
From the text: (§1) The results of the antibacterial testing of a representative compound of formula 1, using the standard agar-dilution test, are summarized in Table II.
^c Methicillinresistant-strain

[3] = Acute toxicity, intravenous, mice; conditions: mouse, in vivo, administered intravenously to mice
[4] = tested on: Staphylococcus aureus V41; format: cell-based; conditions: agar-dilution; penicillin-resistant strain
From the text: as §1
^b Pencillinresistant strain

[5] = tested on: Streptococcus Group D X66; format: cell-based; conditions: agar-dilution
From the text: as §1

[6] = tested on: Staphylococcus epidermidis EPI2; format: cell-based; conditions: agar-dilution
From the text: as §1

[7] = tested on: Streptococcus pyogenes C203; format: cell-based; conditions: agar-dilution
From the text: as §1

[8] = tested on: Staphylococcus epidermidis EPI1; format: cell-based; conditions: agar-dilution
From the text: as §1

Streptococcus Group 9960 = format: cell-based; conditions: agar-dilution
From the text: as §1

[9] = tested on: Staphylococcus aureus X1.1; format: cell-based; conditions: agar-dilution
From the text: as §1

Streptococcus pyogenes = test: In vivo activity against experimental bacterial infection in mice; conditions: two doses, dose protecting fifty percent of the test animals

Row | Structure (SMILES) | ED50, Staphylococcus aureus, Subcutaneous (Staphylococcus aureus) | Size of Zone of Inhibition, B. subtilis ATCC 6633 grown on minimal nutrient agar [1] | MIC, Staphylococcus aureus X400 [2] | LD50 [3] | MIC, Staphylococcus aureus V41 [4] | MIC, Streptococcus Group D X66 [5] | MIC, Staphylococcus epidermidis EPI2 [6] | MIC, Streptococcus pyogenes C203 [7] | MIC, Staphylococcus epidermidis EPI1 [8] | MIC, Streptococcus Group 9960 (Streptococcus Group 9960) | MIC, Staphylococcus aureus X1.1 [9] | ED50, Streptococcus pyogenes, Oral (Streptococcus pyogenes; oral) | ED50, Streptococcus pyogenes, Subcutaneous (Streptococcus pyogenes; subcutaneous)
1 | CCCCCCCCCCCCOc1ccc(C(=O)N[C@@H](Cc2c[nH]c3ccccc23)C(=O)N[C@@H](CC(N)=O)C(=O)N[C@@H](CC(=O)O)C(=O)N[C@@H]2C(=O)NCC(=O)N[C@@H](CCCN)C(=O)N[C@@H](CC(=O)O)C(=O)N[C@H](C)C(=O)N[C@@H](CC(=O)O)C(=O)NCC(=O)N[C@H](CO)C(=O)N[C@@H]([C@H](C)CC(=O)O)C(=O)N[C@@H](CC(=O)c3ccccc3N)C(=O)O[C@@H]2C)cc1 [Example 2, NTrp -p-(n-dodecyloxy)benzoyl-A-21978C Nucleus] | 3.35 mg/kg × 2 | 20 mm | 2 µg/mL (≈ 1.14 µM) | 67.5 mg/kg | 1 µg/mL (≈ 0.57 µM) | 2 µg/mL (≈ 1.14 µM) | 2 µg/mL (≈ 1.14 µM) | 0.25 µg/mL (≈ 0.142 µM) | 4 µg/mL (≈ 2.28 µM) | 1 µg/mL (≈ 0.57 µM) | 1 µg/mL (≈ 0.57 µM) | > 200 mg/kg × 2 | 0.31 mg/kg × 2
2 | CCCCCCCCCCCCOc1ccc(C(=O)N[C@@H](Cc2c[nH]c3ccccc23)C(=O)N[C@@H](CC(N)=O)C(=O)N[C@@H](CC(=O)O)C(=O)N[C@@H]2C(=O)NCC(=O)N[C@@H](CCCNC(=O)OC(C)(C)C)C(=O)N[C@@H](CC(=O)O)C(=O)N[C@H](C)C(=O)N[C@@H](CC(=O)O)C(=O)NCC(=O)N[C@H](CO)C(=O)N[C@@H]([C@H](C)CC(=O)O)C(=O)N[C@@H](CC(=O)c3ccccc3N)C(=O)O[C@@H]2C)cc1 [Example 1] | – | 22 mm | – | – | – | – | – | – | – | – | – | – | –
